The values that follow come from US8142805B1, “Implantable devices including fixed tissues” (Clemson University Research Foundation, priority 2006, dated 2012).

The experiment deals with hyaluronidase. In words: Hyaluronic acid zymography of explant tissue capsules. The experiment is classed as biochemical, rats. Particulars: developing buffer containing 1 M neomycin; HA gels. The method, then: Hyaluronic acid zymography studies were performed to study the inhibitory effect of neomycin on hyaluronidase. Tissue capsules from 3 weeks explanted treated aortic cusp samples were homogenized and used for gel zymography. Hyaluronic acid (HA) gels were made by incorporating 170 μg/ml of HA in 10% polyacrylamide gels. The tissue extracts were run at 90 Volts for 150 minutes. Protein molecular weight standards (10-150 kDa) were used to identify the molecular weights. Gels were incubated in the developing buffer (two for each sample type) and gels were also incubated in developing buffer containing 1 M neomycin. FIG. 8a and FIG. 8B show similar band intensities for active hyaluronidases in all groups. Thus, presence of more GAGs in Group 1 (Neomycin+EDC+GLUT) was not due to lower enzyme activity in this group as compared to other groups.

As for `NCC1OC(OC2C(CO)OC(OC3C(O)C(N)CC(N)C3OC3OC(CN)C(O)C(O)C3N)C2O)C(N)C(O)C1O` (stereo not shown) [neomycin trisulfate], the “effect on hyaluronidase activity (zymography band density)” value is listed as “inhibited enzyme activity”.
